Results on 1 molecule are retold here after patent US3953478A, “Tetrahydrofuranyl bromoacetates biocides” (Stauffer Chemical Company, priority 1975, dated 1976).

Format in all cases: cell-based
For test [1], the system named is Aspergillus fumigatus. Nature of the test: In Vitro Agar Screening Test. Conditions: potato dextrose agar, 30°C, levels 1, 5, 10, 50 μg/ml, read-out: Minimum Inhibitory Concentration. As for the experimental part: (§1) This test measures the bactericidal, fungicidal and algaecidal properties of a compound when in contact with growing bacteria, fungi or algae in an artificial medium. The test is conducted by adding 20 ml portions of a suitable warm sterile agar solution into 20 × 100 mm Petri dishes at levels of 1, 5, 10 and 50 μg/ml and mixed with the warm mobile agar solution. The treated agar mixture is then allowed to come to room temperature and solidify. Cells of the chosen organism are streaked on the surface of the solidified agar and are then incubated for such lengths of time that untreated samples containing no toxicant show luxurious growth typical of the particular organism. This time varies from 24 hours to 1 week depending on the particular organism. The fungi are incubated at 30°C and the bacteria are incubated at 37°C. The algae are incubated at room temperature under artificial light. Nutrient agar is used as the medium in this test for the bacteria. Potato dextrose agar is used as the medium for the fungi with the exception of Trichophyton mentagrophytes for which Emmons agar is used. A modified Jack Meyers agar is used for the growth of the algae.
(§2) The extent of growth is noted at the end of the incubation period.

The subject of test [2] is Aspergillus niger. Nature of the test: In Vitro Agar Screening Test. Particulars: potato dextrose agar, 30°C, levels 1, 5, 10, 50 μg/ml, read-out: Minimum Inhibitory Concentration. As for the experimental part: as §1, §2
Test [3] relates to Aspergillus oryzae. Briefly: In Vitro Agar Screening Test. Particulars: potato dextrose agar, 30°C, levels 1, 5, 10, 50 μg/ml, read-out: Minimum Inhibitory Concentration. As for the experimental part:
as §1, §2

For test [4], the system named is Bacillus cereus. Nature of the test: In Vitro Agar Screening Test. Conditions: nutrient agar, 37°C, levels 1, 5, 10, 50 μg/ml, read-out: Minimum Inhibitory Concentration. The procedure: as §1, §2
The test system of test [5] is Chlorella pyrenoidosa. Nature of the test: In Vitro Agar Screening Test. Conditions: Auxenochlorella pyrenoidosa, modified Jack Meyers agar, room temperature, artificial light, levels 1, 5, 10, 50 μg/ml, read-out: Minimum Inhibitory Concentration. As for the experimental part:
as §1, §2

Test [6] concerns Enterobacter aerogenes. Nature of the test: In Vitro Agar Screening Test. Particulars: Klebsiella aerogenes, nutrient agar, 37°C, levels 1, 5, 10, 50 μg/ml, read-out: Minimum Inhibitory Concentration. The procedure: as §1, §2
In test [7] the test system is Escherichia coli. Nature of the test: In Vitro Agar Screening Test. Particulars: nutrient agar, 37°C, levels 1, 5, 10, 50 μg/ml, read-out: Minimum Inhibitory Concentration. The procedure:
as §1, §2

The subject of test [8] is Euglena gracilis. Nature of the test: In Vitro Agar Screening Test. Conditions: modified Jack Meyers agar, room temperature, artificial light, levels 1, 5, 10, 50 μg/ml, read-out: Minimum Inhibitory Concentration. As for the experimental part:
as §1, §2

The test system of test [9] is Pencillium expansum. Nature of the test: In Vitro Agar Screening Test. Particulars: potato dextrose agar, 30°C, levels 1, 5, 10, 50 μg/ml, read-out: Minimum Inhibitory Concentration. The procedure:
as §1, §2

The test system of test [10] is Pencillium ochra-chloron. Nature of the test: In Vitro Agar Screening Test. Particulars: potato dextrose agar, 30°C, levels 1, 5, 10, 50 μg/ml, read-out: Minimum Inhibitory Concentration. As for the experimental part: as §1, §2
Test [11] has as its system Pseudomonas aeruginosa. Briefly: In Vitro Agar Screening Test. Conditions: nutrient agar, 37°C, levels 1, 5, 10, 50 μg/ml, read-out: Minimum Inhibitory Concentration. The procedure:
as §1, §2

Test [12] concerns Pseudomonas fluorescens. Briefly: In Vitro Agar Screening Test. Particulars: nutrient agar, 37°C, levels 1, 5, 10, 50 μg/ml, read-out: Minimum Inhibitory Concentration. The procedure:
as §1, §2

Test [13] has as its system Scenedesmus obliquus. Nature of the test: In Vitro Agar Screening Test. Particulars: Tetradesmus obliquus, modified Jack Meyers agar, room temperature, artificial light, levels 1, 5, 10, 50 μg/ml, read-out: Minimum Inhibitory Concentration. The procedure:
as §1, §2

Test [14] has as its system Trichoderma sp. Nature of the test: In Vitro Agar Screening Test. Conditions: potato dextrose agar, 30°C, levels 1, 5, 10, 50 μg/ml, read-out: Minimum Inhibitory Concentration. The procedure: as §1, §2
Test [15] relates to Trichophyton mentagrophytes. Briefly: In Vitro Agar Screening Test. Conditions: Emmons agar, 30°C, levels 1, 5, 10, 50 μg/ml, read-out: Minimum Inhibitory Concentration. The procedure: as §1, §2
Test [16] concerns Staphylococcus aureus. Nature of the test: Staphylococcus Aureus Use Dilution Test. Conditions: Tryptic Soy Broth, 24 hours at 37°C, minimum concentration in which no growth occurs, read-out: Minimum Inhibitory Concentration. The procedure: This test measures the bacteriostatic effectiveness of a particular test compound against Staphylococcus aureus. Tryptic Soy Broth is dispensed aseptically into sterile 13 × 100 mm clear glass culture tubes. The first tube receives 3.6 ml of medium and tubes 2 through 10 receive 2.0 ml of medium. The test compound is dissolved in acetone to give 10 ml of a solution of 0.10% of the test compound. Using a sterile syringe, 0.4 ml of the test compound solution is placed in the first tube containing the 3.6 ml of sterile broth and mixed thoroughly. This operation is continued through to the tenth tube. From the tenth tube, 2.0 ml of solution is removed and discarded. Each tube is then inoculated with 0.1 ml of a 24-hour culture of Staphylococcus aureus in Tryptic Soy Broth, and the mixture is mixed thoroughly using a Vortex mixer. A control is also set up to be sure that the inoculum is viable using a tube of sterile broth containing no added toxicant. The tubes are incubated for 24 hours at 37°C. The tubes are then examined to determine growth of the organism in the culture tubes. The minimum concentration in which no growth of the organism occurs is recorded. The following table gives the minimum inhibitory concentration necessary to control the organism: […]

≈ marks a conversion by molar mass, not a printed value.

Turning to `O=C(CBr)OC1CCOC1` (stereo not shown) [Compound No. 1, 3-bromoacetoxy tetrahydrofuran], the MIC is 50 µg/mL (≈ 239 µM) in test [1]; 5 µg/mL (≈ 23.9 µM) in test [2]; 50 µg/mL (≈ 239 µM) in test [3]; 50 µg/mL (≈ 239 µM) in test [4]; 1 µg/mL (≈ 4.78 µM) in test [5]; 50 µg/mL (≈ 239 µM) in [6]. Moreover, the MIC in test [7] was greater than 50 µg/mL; in [8], 5 µg/mL (≈ 23.9 µM); in test [9], 50 µg/mL (≈ 239 µM); in test [10], 50 µg/mL (≈ 239 µM); in [11], greater than 50 µg/mL; in test [12] it was greater than 50 µg/mL. The MIC amounted to 1 µg/mL (≈ 4.78 µM) in test [13], 50 µg/mL (≈ 239 µM) in [14], 50 µg/mL (≈ 239 µM) in test [15] and 12.5 µg/mL (≈ 59.8 µM) in test [16].
